Laboratory results taken from ChEMBL document CHEMBL4619788, “Chemically Induced Degradation of FAK-ALK for Application in Cancer Therapeutics” (ACS Med Chem Lett, 2020).

Assays:
[1] = target: T1, Protein cereblon/Focal adhesion kinase 1 (Homo sapiens) (UniProt Q05397+Q96SW2); assay: Protac activity at CRBN/FAK in human PA-TU-8988T cells assessed as induction of FAK degradation at 100 nM incubated for 4 hrs by immunoblot assay relative to control; format: cell-based
[2] = target: T1, Protein cereblon/Focal adhesion kinase 1 (Homo sapiens); assay: Protac activity at CRBN/FAK in human PA-TU-8988T cells assessed as induction of FAK degradation at 10 nM incubated for 4 hrs by immunoblot assay relative to control; format: cell-based

T1 sequence (Q05397 2-1052 limits assumed): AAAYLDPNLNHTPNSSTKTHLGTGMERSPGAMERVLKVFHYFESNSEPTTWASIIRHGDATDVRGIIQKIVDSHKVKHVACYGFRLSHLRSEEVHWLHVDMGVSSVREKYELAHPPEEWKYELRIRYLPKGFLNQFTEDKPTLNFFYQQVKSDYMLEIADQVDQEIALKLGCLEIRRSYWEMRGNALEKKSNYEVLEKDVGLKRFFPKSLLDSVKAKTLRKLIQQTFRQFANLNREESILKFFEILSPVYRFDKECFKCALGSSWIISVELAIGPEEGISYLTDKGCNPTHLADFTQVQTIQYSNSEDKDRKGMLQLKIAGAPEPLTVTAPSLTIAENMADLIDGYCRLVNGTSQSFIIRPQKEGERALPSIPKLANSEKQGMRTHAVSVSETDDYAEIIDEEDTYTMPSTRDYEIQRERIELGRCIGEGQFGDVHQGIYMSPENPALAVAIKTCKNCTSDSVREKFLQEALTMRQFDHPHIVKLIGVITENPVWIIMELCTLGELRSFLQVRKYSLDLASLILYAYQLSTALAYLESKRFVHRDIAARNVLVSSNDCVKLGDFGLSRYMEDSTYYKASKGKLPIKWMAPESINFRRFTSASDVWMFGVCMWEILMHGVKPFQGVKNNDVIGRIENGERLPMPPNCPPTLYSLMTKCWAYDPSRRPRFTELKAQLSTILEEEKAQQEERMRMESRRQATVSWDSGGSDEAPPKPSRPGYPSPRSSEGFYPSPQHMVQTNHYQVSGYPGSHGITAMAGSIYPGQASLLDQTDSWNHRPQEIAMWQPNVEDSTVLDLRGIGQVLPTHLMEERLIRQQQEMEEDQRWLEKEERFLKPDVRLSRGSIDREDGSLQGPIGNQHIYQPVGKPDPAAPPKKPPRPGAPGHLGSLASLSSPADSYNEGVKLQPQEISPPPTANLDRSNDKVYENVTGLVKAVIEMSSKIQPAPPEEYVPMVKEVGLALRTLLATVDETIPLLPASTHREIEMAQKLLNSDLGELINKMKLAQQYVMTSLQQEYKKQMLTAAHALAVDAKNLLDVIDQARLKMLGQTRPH
T1 sequence (Q96SW2 whole entry partner): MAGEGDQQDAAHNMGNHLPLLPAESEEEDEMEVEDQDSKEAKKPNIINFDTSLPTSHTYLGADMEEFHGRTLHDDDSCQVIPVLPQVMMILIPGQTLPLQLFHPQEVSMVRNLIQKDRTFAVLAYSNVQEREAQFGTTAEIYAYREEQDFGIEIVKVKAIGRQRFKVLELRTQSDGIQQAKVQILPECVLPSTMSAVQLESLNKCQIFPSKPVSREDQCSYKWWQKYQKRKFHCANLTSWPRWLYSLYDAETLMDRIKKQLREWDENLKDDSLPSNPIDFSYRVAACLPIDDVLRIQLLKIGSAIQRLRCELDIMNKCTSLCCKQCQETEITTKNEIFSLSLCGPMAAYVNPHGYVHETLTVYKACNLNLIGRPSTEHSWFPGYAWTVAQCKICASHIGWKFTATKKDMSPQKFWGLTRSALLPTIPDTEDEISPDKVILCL

Row | SMILES | Activity [1] [%] | Activity [2] [%]
1 | CNC(=O)c1ccccc1Nc1cc(Nc2ccc(N3CCN(CCCCCCCCNc4cccc5c4C(=O)N(C4CCC(=O)NC4=O)C5=O)CC3)cc2OC)ncc1C(F)(F)F (configuration not stated) | 85 to 100 | 85 to 100
2 | CNC(=O)c1ccccc1Nc1cc(Nc2ccc(N3CCN(CCCCCCCCNC(=O)CNc4cccc5c4C(=O)N(C4CCC(=O)NC4=O)C5=O)CC3)cc2OC)ncc1C(F)(F)F (configuration not stated) | 85 to 100 | 85 to 100
3 | CNC(=O)c1ccccc1Nc1cc(Nc2ccc(N3CCN(CCOCCOCCNC(=O)CNc4cccc5c4C(=O)N(C4CCC(=O)NC4=O)C5=O)CC3)cc2OC)ncc1C(F)(F)F (configuration not stated) | 85 to 100 | 70 to 84
4 | CNC(=O)c1ccccc1Nc1cc(Nc2ccc(N3CCN(CCCCCCNC(=O)COc4cccc5c4C(=O)N(C4CCC(=O)NC4=O)C5=O)CC3)cc2OC)ncc1C(F)(F)F (configuration not stated) | 85 to 100 | 85 to 100
5 | CS(=O)(=O)c1cccc(CNc2nc(Nc3ccc(C(=O)NCCCCCCCCNC(=O)COc4cccc5c4C(=O)N(C4CCC(=O)NC4=O)C5=O)cc3)ncc2C(F)(F)F)c1 (configuration not stated) | 85 to 100 | 25 to 49
6 | CNC(=O)c1ccccc1Nc1cc(Nc2cc(C)c(C3CCN(CCCCCCNC(=O)COc4cccc5c4C(=O)N(C4CCC(=O)NC4=O)C5=O)CC3)cc2OC(C)C)ncc1C(F)(F)F (configuration not stated) | 85 to 100 | 85 to 100
